In the Kinase Knowledgebase extract (Sharma et al. 2016):
pIC50: −log10 of the molar value.

molecular target: EGFR (UniProt P00533)
Sequence (P00533 whole entry, looked up): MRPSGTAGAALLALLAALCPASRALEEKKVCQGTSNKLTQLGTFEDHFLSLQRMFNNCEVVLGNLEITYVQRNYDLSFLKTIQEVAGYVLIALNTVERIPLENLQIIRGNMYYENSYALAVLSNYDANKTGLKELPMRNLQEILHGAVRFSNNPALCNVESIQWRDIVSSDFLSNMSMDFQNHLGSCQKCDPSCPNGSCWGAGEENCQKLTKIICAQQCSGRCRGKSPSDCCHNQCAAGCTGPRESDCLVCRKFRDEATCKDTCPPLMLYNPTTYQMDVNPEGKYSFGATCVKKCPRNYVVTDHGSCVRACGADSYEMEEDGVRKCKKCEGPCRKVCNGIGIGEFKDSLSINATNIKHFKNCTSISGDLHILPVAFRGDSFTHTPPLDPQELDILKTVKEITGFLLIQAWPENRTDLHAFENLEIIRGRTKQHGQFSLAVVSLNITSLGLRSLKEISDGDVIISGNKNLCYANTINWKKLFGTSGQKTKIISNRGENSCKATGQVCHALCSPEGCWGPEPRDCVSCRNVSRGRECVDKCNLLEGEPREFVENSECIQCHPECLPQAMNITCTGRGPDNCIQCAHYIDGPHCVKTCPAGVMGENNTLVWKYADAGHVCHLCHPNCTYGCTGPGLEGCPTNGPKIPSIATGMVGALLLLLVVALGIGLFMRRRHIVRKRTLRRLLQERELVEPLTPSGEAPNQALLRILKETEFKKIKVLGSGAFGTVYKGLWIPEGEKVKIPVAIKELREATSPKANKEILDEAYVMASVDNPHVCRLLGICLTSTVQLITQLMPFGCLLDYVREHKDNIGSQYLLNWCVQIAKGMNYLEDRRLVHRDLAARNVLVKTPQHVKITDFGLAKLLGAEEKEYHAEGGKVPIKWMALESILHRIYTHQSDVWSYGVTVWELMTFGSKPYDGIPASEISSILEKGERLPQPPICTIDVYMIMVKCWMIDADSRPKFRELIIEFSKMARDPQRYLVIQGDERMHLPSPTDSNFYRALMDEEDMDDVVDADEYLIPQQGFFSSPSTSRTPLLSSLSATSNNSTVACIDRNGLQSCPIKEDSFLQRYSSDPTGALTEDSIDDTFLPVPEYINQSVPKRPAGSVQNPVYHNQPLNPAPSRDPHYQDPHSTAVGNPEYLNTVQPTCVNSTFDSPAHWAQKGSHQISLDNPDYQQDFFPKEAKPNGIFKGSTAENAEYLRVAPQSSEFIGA

pIC50 | Structure (SMILES)
6.30 to 7.30 | COCCN1CCC(Nc2ccc3c(c2)/C(=C(\c2ccc(C)c(F)c2)c2ncc[nH]2)C(=O)N3)CC1
6.30 to 7.30 | COCCN1CCC(Nc2ccc3c(c2)/C(=C(\c2cc(F)cc(F)c2)c2nc(C)c[nH]2)C(=O)N3)CC1
5.30 to 6.30 | CCN1CCC(Nc2ccc3c(c2)/C(=C(\c2ccc(F)cc2)c2ncc[nH]2)C(=O)N3)CC1
5.30 to 6.30 | CCN1CCC(Nc2ccc3c(c2)/C(=C(\c2ccc(C)cc2)c2nc4cc(OC)ccc4[nH]2)C(=O)N3)CC1
5.30 to 6.30 | COCCN1CCC(Oc2ccc3c(c2)/C(=C(\c2cc(F)cc(F)c2)c2nc4ccccc4[nH]2)C(=O)N3)CC1
6.30 to 7.30 | COCCN1CCC(Nc2ccc3c(c2)/C(=C(\c2cccc(F)c2)c2nc(C)c[nH]2)C(=O)N3)CC1
< 5.30 | COCCN1CCC(Nc2ccc3c(c2)/C(=C(\c2ccc(F)c(F)c2)c2ncc[nH]2)C(=O)N3)CC1
5.30 to 6.30 | O=C1Nc2ccc(NC3CC4CCC(C3)N4)cc2/C1=C(\c1ccccc1)c1nc2ccccc2[nH]1 (stereo unspecified)
5.30 to 6.30 | CCN1CCC(Oc2ccc3c(c2)/C(=C(\c2cccc(Cl)c2)c2ncc[nH]2)C(=O)N3)CC1
5.30 to 6.30 | CCN1CCC(Oc2ccc3c(c2)/C(=C(\c2cccc(OC)c2)c2nc4ccccc4[nH]2)C(=O)N3)CC1
6.30 to 7.30 | COCCN1CCC(Nc2ccc3c(c2)/C(=C(\c2cc(F)cc(F)c2)c2nc4ccccc4[nH]2)C(=O)N3)CC1
6.30 to 7.30 | CCN1CCC(Nc2ccc3c(c2)/C(=C(/c2ncc[nH]2)c2ccccc2F)C(=O)N3)CC1
6.30 to 7.30 | CCCc1ccc(/C(=C2/C(=O)Nc3ccc(NC4CCN(CCOC)CC4)cc32)c2ncc[nH]2)cc1
< 5.30 | O=C1Nc2ccc(NC3CCN(CCN4CCOCC4)CC3)cc2/C1=C(\c1cccc(F)c1)c1ncc[nH]1
5.30 to 6.30 | CCN1CCC(Nc2ccc3c(c2)/C(=C(\c2ccc([N+](=O)[O-])cc2)c2nc4ccccc4[nH]2)C(=O)N3)CC1
5.30 to 6.30 | CCN1CCC(Nc2ccc3c(c2)/C(=C(\c2cccc(N)c2)c2nc4ccccc4[nH]2)C(=O)N3)CC1
< 5.30 | COCCN1CCC(Nc2ccc3c(c2)/C(=C(\c2ccc(OC)cc2)c2ncc[nH]2)C(=O)N3)CC1
5.30 to 6.30 | CCN1CCC(Nc2ccc3c(c2)/C(=C(\c2ccc(OC)cc2)c2nc4cc(OC)ccc4[nH]2)C(=O)N3)CC1
5.30 to 6.30 | CCN1CCC(Nc2ccc3c(c2)/C(=C(\c2cccc(C#N)c2)c2nc4ccccc4[nH]2)C(=O)N3)CC1
6.30 to 7.30 | CCN1CCC(Nc2ccc3c(c2)/C(=C(\c2cccc(OC)c2)c2nc4ccccc4[nH]2)C(=O)N3)CC1
< 5.30 | O=C1Nc2ccc(NC3CCN(CCN4CCCCC4)CC3)cc2/C1=C(\c1cccc(F)c1)c1ncc[nH]1
< 5.30 | COCCN1CCC(Nc2ccc3c(c2)/C(=C(\c2ccc(C(F)(F)F)c(F)c2)c2ncc[nH]2)C(=O)N3)CC1
5.30 to 6.30 | CCN1CCC(Nc2ccc3c(c2)/C(=C(\c2cccc(C(F)(F)F)c2)c2nc(C)c[nH]2)C(=O)N3)CC1
< 5.30 | CCN(CC)CCN1CCC(Nc2ccc3c(c2)/C(=C(\c2cccc(F)c2)c2ncc[nH]2)C(=O)N3)CC1
5.30 to 6.30 | COCCN1CCC(Nc2ccc3c(c2)/C(=C(\c2cccc(Cl)c2)c2nc4ccccc4[nH]2)C(=O)N3)CC1
6.30 to 7.30 | CCN1CCC(Nc2ccc3c(c2)/C(=C(\c2ccc(C)cc2)c2ncc[nH]2)C(=O)N3)CC1
5.30 to 6.30 | CCN1CCC(Oc2ccc3c(c2)/C(=C(\c2cccc(Cl)c2)c2nc4ccccc4[nH]2)C(=O)N3)CC1

pIC50 | Structure (SMILES)
6.30 to 7.30 | CCCc1ccc(/C(=C2/C(=O)Nc3ccc(NC4CCN(CC)CC4)cc32)c2ncc[nH]2)cc1
5.30 to 6.30 | CCN1CCC(Nc2ccc3c(c2)/C(=C(\c2cccc(C(=N)N)c2)c2nc4ccccc4[nH]2)C(=O)N3)CC1
6.30 to 7.30 | COCCN1CCC(Nc2ccc3c(c2)/C(=C(\c2ccccc2)c2nc4ccccc4[nH]2)C(=O)N3)CC1
5.30 to 6.30 | CCN1CCC(Oc2ccc3c(c2)/C(=C(\c2ccccc2)c2nc4cc(OC)ccc4[nH]2)C(=O)N3)CC1
< 5.30 | CS(=O)(=O)N1CCC(Nc2ccc3c(c2)/C(=C(\c2cccc(F)c2)c2ncc[nH]2)C(=O)N3)CC1
5.30 to 6.30 | COCCN1CCC(Nc2ccc3c(c2)/C(=C(\c2ccc(F)cc2)c2nc4ccccc4[nH]2)C(=O)N3)CC1
< 5.30 | CCOC(=O)c1[nH]c(/C(=C2\C(=O)Nc3ccc(NC4CCN(CCOC)CC4)cc32)c2cccc(F)c2)nc1C
6.30 to 7.30 | CCN1CCC(Nc2ccc3c(c2)/C(=C(\c2ccc(C(F)(F)F)c(F)c2)c2ncc[nH]2)C(=O)N3)CC1
5.30 to 6.30 | CCN1CCC(Nc2ccc3c(c2)/C(=C(\c2ccc(OC)cc2)c2ncc[nH]2)C(=O)N3)CC1
6.30 to 7.30 | CCN1CCC(Nc2ccc3c(c2)/C(=C(\c2ccc(N)cc2)c2nc4ccccc4[nH]2)C(=O)N3)CC1
6.30 to 7.30 | CCN1CCC(Nc2ccc3c(c2)/C(=C(\c2ccc(C(F)(F)F)cc2)c2nc(C)c[nH]2)C(=O)N3)CC1
6.30 to 7.30 | CCN1CCC(Nc2ccc3c(c2)/C(=C(\c2cc(F)cc(F)c2)c2ncc[nH]2)C(=O)N3)CC1
< 5.30 | COCCN1CCC(Nc2ccc3c(c2)/C(=C(\c2ccc(C(F)(F)F)nc2)c2ncc[nH]2)C(=O)N3)CC1
> 7.30 | COCCN1CCC(Nc2ccc3c(c2)/C(=C(\c2ccc(C)c(F)c2)c2nc(C)c[nH]2)C(=O)N3)CC1
6.30 to 7.30 | CCN1CCC(Nc2ccc3c(c2)/C(=C(\c2ccc(Cl)cc2)c2nc4ccccc4[nH]2)C(=O)N3)CC1
5.30 to 6.30 | CCN1CCC(Oc2ccc3c(c2)/C(=C(\c2cc(F)cc(F)c2)c2nc4ccccc4[nH]2)C(=O)N3)CC1
< 5.30 | COCCN1CCC(Nc2ccc3c(c2)/C(=C(\c2ccc(F)cc2)c2ncc[nH]2)C(=O)N3)CC1
< 5.30 | CCN1CCC(Nc2ccc3c(c2)/C(=C(\c2ccc(C(F)(F)F)nc2)c2ncc[nH]2)C(=O)N3)CC1
6.30 to 7.30 | COCCN1CCC(Nc2ccc3c(c2)/C(=C(\c2cccc(F)c2)c2ncc[nH]2)C(=O)N3)CC1
5.30 to 6.30 | CS(=O)(=O)N1CCC(Nc2ccc3c(c2)/C(=C(\c2ccccc2)c2nc4ccccc4[nH]2)C(=O)N3)CC1
6.30 to 7.30 | CCN1CCC(Nc2ccc3c(c2)/C(=C(/c2nc(C)c[nH]2)c2cccc(F)c2F)C(=O)N3)CC1
6.30 to 7.30 | CCN1CCC(Nc2ccc3c(c2)/C(=C(/c2ncc[nH]2)c2cccc(F)c2F)C(=O)N3)CC1
5.30 to 6.30 | CCN1CCC(Nc2ccc3c(c2)/C(=C(\c2cccc([N+](=O)[O-])c2)c2nc4ccccc4[nH]2)C(=O)N3)CC1
< 5.30 | O=C1Nc2ccc(NC3CCN(CCN4CCCC4)CC3)cc2/C1=C(\c1cccc(F)c1)c1ncc[nH]1
> 7.30 | CCN1CCC(Nc2ccc3c(c2)/C(=C(\c2ccc(F)c(F)c2)c2nc(C)c[nH]2)C(=O)N3)CC1
6.30 to 7.30 | CCN1CCC(Nc2ccc3c(c2)/C(=C(/c2nc(C)c[nH]2)c2ccc(C(F)(F)F)cc2F)C(=O)N3)CC1
> 7.30 | CCN1CCC(Nc2ccc3c(c2)/C(=C(\c2ccc(C)c(F)c2)c2nc4ccccc4[nH]2)C(=O)N3)CC1

pIC50 | Structure (SMILES)
> 7.30 | CCN1CCC(Nc2ccc3c(c2)/C(=C(\c2ccc(C(F)(F)F)c(F)c2)c2nc(C)c[nH]2)C(=O)N3)CC1
5.30 to 6.30 | COCCN1CCC(Nc2ccc3c(c2)/C(=C(\c2cccc(Cl)c2)c2ncc[nH]2)C(=O)N3)CC1
6.30 to 7.30 | CCN1CCC(Nc2ccc3c(c2)/C(=C(/c2ncc[nH]2)c2ccc(F)cc2F)C(=O)N3)CC1
6.30 to 7.30 | CCN1CCC(Nc2ccc3c(c2)/C(=C(\c2ccc(C)cc2)c2nc(C)c[nH]2)C(=O)N3)CC1
6.30 to 7.30 | CCN1CCC(Nc2ccc3c(c2)/C(=C(/c2nc(C)c[nH]2)c2ccc(F)cc2F)C(=O)N3)CC1
5.30 to 6.30 | COc1ccc2[nH]c(/C(=C3\C(=O)Nc4ccc(NC5CC(C)(C)NC(C)(C)C5)cc43)c3ccccc3)nc2c1
< 5.30 | CCN1CCC(Nc2ccc3c(c2)/C(=C(\c2cccc(F)c2)c2ncn[nH]2)C(=O)N3)CC1
5.30 to 6.30 | CCN1CCC(Nc2ccc3c(c2)/C(=C(\c2ccccc2)c2nc(CCN4C(=O)c5ccccc5C4=O)c[nH]2)C(=O)N3)CC1
> 7.30 | CCN1CCC(Nc2ccc3c(c2)/C(=C(/c2nc(C)c[nH]2)c2ccc(Cl)cc2F)C(=O)N3)CC1
6.30 to 7.30 | CCN1CCC(Nc2ccc3c(c2)/C(=C(\c2cc(F)cc(F)c2)c2nc4cc(F)ccc4[nH]2)C(=O)N3)CC1
5.30 to 6.30 | CCN1CCC(Nc2ccc3c(c2)/C(=C(\c2ccc(F)c(F)c2)c2ncc[nH]2)C(=O)N3)CC1
6.30 to 7.30 | CCN1CCC(Nc2ccc3c(c2)/C(=C(/c2nc(C)c[nH]2)c2cc(F)c(Cl)cc2Cl)C(=O)N3)CC1
5.30 to 6.30 | CCN1CCC(Nc2ccc3c(c2)/C(=C(\c2ccc(F)c(Cl)c2)c2ncc[nH]2)C(=O)N3)CC1
< 5.30 | CCN1CCC(Nc2ccc3c(c2)/C(=C(/c2cc(F)cc(F)c2)c2nc4cc(F)ccc4[nH]2)C(=O)N3)CC1
5.30 to 6.30 | O=C1Nc2ccc(NC3CCNCC3)cc2/C1=C(\c1ccccc1)c1nc2ccccc2[nH]1
6.30 to 7.30 | CCN1CCC(Nc2ccc3c(c2)/C(=C(\c2cccc(Cl)c2)c2nc4ccccc4[nH]2)C(=O)N3)CC1
5.30 to 6.30 | CN(C)CCN1CCC(Nc2ccc3c(c2)/C(=C(\c2ccccc2)c2nc4ccccc4[nH]2)C(=O)N3)CC1
< 5.30 | COCCN1CCC(Nc2ccc3c(c2)/C(=C(\c2ccc(Cl)cc2)c2ncc[nH]2)C(=O)N3)CC1
< 5.30 | COCCN1CCC(Nc2ccc3c(c2)/C(=C(\c2ccccc2)c2nc4cc(Cl)ccc4[nH]2)C(=O)N3)CC1
< 5.30 | COCCN1CCC(Nc2ccc3c(c2)/C(=C(\c2ccc(C(F)(F)F)cc2)c2ncc[nH]2)C(=O)N3)CC1
6.30 to 7.30 | COCCN1CCC(Oc2ccc3c(c2)/C(=C(\c2cccc(Cl)c2)c2nc4ccccc4[nH]2)C(=O)N3)CC1
5.30 to 6.30 | CCN1CCCC(Nc2ccc3c(c2)/C(=C(\c2ccccc2)c2nc4cc(OC)ccc4[nH]2)C(=O)N3)C1 (stereo unspecified)
6.30 to 7.30 | CCN1CCC(Nc2ccc3c(c2)/C(=C(\c2ccc(F)cc2)c2nc(C)c[nH]2)C(=O)N3)CC1
5.30 to 6.30 | O=C1Nc2ccc(OC3CCN(Cc4ccccc4)CC3)cc2/C1=C(\c1ccccc1)c1nc2ccccc2[nH]1
5.30 to 6.30 | CCN1CCC(Nc2ccc3c(c2)/C(=C(\c2cccc(C(F)(F)F)c2)c2ncc[nH]2)C(=O)N3)CC1
6.30 to 7.30 | COCCN1CCC(Nc2ccc3c(c2)/C(=C(\c2cc(F)cc(F)c2)c2ncc[nH]2)C(=O)N3)CC1

Structure (SMILES) | pIC50
CCN1CCC(N(C)c2ccc3c(c2)/C(=C(\c2cccc(Cl)c2)c2nc4ccccc4[nH]2)C(=O)N3)CC1 | 5.30 to 6.30
